Literature values in patent publication US12642292B2, “Multi-compartment oral pouched product” (NICOVENTURES TRADING LIMITED, priority 2021, dated 2026).

Assays:
[1] = for solubility in water / aqueous environment: for CBD aqueous environment (e.g., saliva)
[2] = when isolated; converts via isomerization into trans-bixin

SMILES: COC(=O)/C=C/C(C)=C\C=C\C(C)=C\C=C\C=C(C)\C=C\C=C(C)\C=C\C(=O)O [bixin]
- solubility in fats and alcohols ([1]; fats and alcohols): soluble in fats and alcohols
- solubility in water / aqueous environment [1]: insoluble in water
- chemical stability [2]: chemically unstable when isolated

SMILES: CC(/C=C/C=C(C)/C=C/C(=O)O)=C\C=C\C=C(C)\C=C\C=C(C)\C=C\C(=O)O (stereo in doubt) [norbixin, (2E,4E,6E,8E,10E,12E,14E,16E,18E)-4,8,13,17-tetramethylicosa-2,4,6,8,10,12,14,16,18-nonaenedioic acid]
- solubility in water / aqueous environment [1]: water soluble

SMILES: C=C(C)[C@@H]1CCC(C)=C[C@H]1c1c(O)cc(CCCCC)cc1O [CBD, cannabidiol, reference compound]
- solubility in water / aqueous environment [1]: insoluble in an aqueous environment
